Results reported in PubChem BioAssay AID1963846 (Molecular Pharmacology Branch, DTP, NCI, 2024).

System: 454973-116-R2-J3-PDC complex spheroid viability
Assay: Anticancer human tumor 454973-116-R2-J3-PDC patient-derived pancreatic carcinoma cell line growth inhibition [POLQ]
Details: for IC50: curve of first compound; for viability, T/C: stronger effect = lower value
Procedure, shortened: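 Patient-derived tumour cells were co-cultured with HUVEC and mesenchymal stem cells as multicellular spheroids at 37 °C. They were treated with POLQ inhibitors (novobiocin, ART-558, RP6685) alone or combined with other agents. Top concentrations were at or near clinical Cmax (otherwise 10 microM; SN-38 at 1 microM), decreasing in half-log steps.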

[1] = second compound 0.0316 µM, first compound 0.0316 µM
[2] = second compound 0.0316 µM, first compound 0.1 µM
[3] = second compound 0.0316 µM, first compound 0.316 µM
[4] = second compound 0.0316 µM, first compound 1 µM
[5] = second compound 0.0316 µM, first compound 3.16 µM
[6] = second compound 0.0316 µM, first compound 10 µM
[7] = second compound 0.1 µM, first compound 0.0316 µM
[8] = second compound 0.1 µM, first compound 0.1 µM
[9] = second compound 0.1 µM, first compound 0.316 µM
[10] = second compound 0.1 µM, first compound 1 µM
[11] = second compound 0.1 µM, first compound 3.16 µM
[12] = second compound 0.1 µM, first compound 10 µM
[13] = second compound 0.316 µM, first compound 0.0316 µM
[14] = second compound 0.316 µM, first compound 0.1 µM
[15] = second compound 0.316 µM, first compound 0.316 µM
[16] = second compound 0.316 µM, first compound 1 µM
[17] = second compound 0.316 µM, first compound 3.16 µM
[18] = second compound 0.316 µM, first compound 10 µM
[19] = second compound 1 µM, first compound 0.0316 µM
[20] = second compound 1 µM, first compound 0.1 µM
[21] = second compound 1 µM, first compound 0.316 µM
[22] = second compound 1 µM, first compound 1 µM
[23] = second compound 1 µM, first compound 3.16 µM
[24] = second compound 1 µM, first compound 10 µM
[25] = second compound 3.16 µM, first compound 0.0316 µM
[26] = second compound 3.16 µM, first compound 0.1 µM
[27] = second compound 3.16 µM, first compound 0.316 µM
[28] = second compound 3.16 µM, first compound 1 µM
[29] = second compound 3.16 µM, first compound 3.16 µM
[30] = second compound 3.16 µM, first compound 10 µM
[31] = second compound 10 µM, first compound 0.0316 µM
[32] = second compound 10 µM, first compound 0.1 µM
[33] = second compound 10 µM, first compound 0.316 µM
[34] = second compound 10 µM, first compound 1 µM
[35] = second compound 10 µM, first compound 3.16 µM
[36] = second compound 10 µM, first compound 10 µM
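Further: spheroids exposed to drugs for seven days before measurement.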
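Wherever viability, T/C is given: percent viability relative to DMSO vehicle control wells taken as 100%.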

SMILES: CC1COCCN1c1cc(C2(S(C)(=N)=O)CC2)nc(-c2ccnc3[nH]ccc23)n1 (stereo unspecified) + Cc1cccc(N(C)C(=O)C2C(O)CCN2c2nc(C)cc(C(F)(F)F)c2C#N)c1
- IC50 (second compound 0.0316 µM): 6.39 µM
- IC50 (second compound 0.1 µM): 6.9 µM
- IC50 (second compound 0.316 µM): 5.75 µM
- IC50 (second compound 1 µM): 5.92 µM
- IC50 (second compound 3.16 µM): 6.6 µM
- IC50 (second compound 10 µM): 5.9 µM
- viability, T/C [1]: 111%
- viability, T/C [2]: 105%
- viability, T/C [3]: 103%
- viability, T/C [4]: 108%
- viability, T/C [5]: 85.2%
- viability, T/C [6]: 27.4%
- viability, T/C [7]: 111%
- viability, T/C [8]: 116%
- viability, T/C [9]: 105%
- viability, T/C [10]: 104%
- viability, T/C [11]: 75.2%
- viability, T/C [12]: 37.9%
- viability, T/C [13]: 104%
- viability, T/C [14]: 107%
- viability, T/C [15]: 111%
- viability, T/C [16]: 110%
- viability, T/C [17]: 72.4%
- viability, T/C [18]: 29.4%
- viability, T/C [19]: 111%
- viability, T/C [20]: 113%
- viability, T/C [21]: 114%
- viability, T/C [22]: 109%
- viability, T/C [23]: 75%
- viability, T/C [24]: 29.1%
- viability, T/C [25]: 117%
- viability, T/C [26]: 112%
- viability, T/C [27]: 113%
- viability, T/C [28]: 96.3%
- viability, T/C [29]: 80.8%
- viability, T/C [30]: 33%
- viability, T/C [31]: 114%
- viability, T/C [32]: 112%
- viability, T/C [33]: 106%
- viability, T/C [34]: 102%
- viability, T/C [35]: 74.6%
- viability, T/C [36]: 28.8%

SMILES: O=c1[nH]cc(F)c(=O)[nH]1 + COC1C(OC(N)=O)C(O)C(Oc2ccc3c(O)c(NC(=O)c4ccc(O)c(CC=C(C)C)c4)c(=O)oc3c2C)OC1(C)C
- IC50 (second compound 0.0316 µM): 4.11 µM
- IC50 (second compound 0.1 µM): 4.8 µM
- IC50 (second compound 0.316 µM): 4.27 µM
- IC50 (second compound 1 µM): 4.01 µM
- IC50 (second compound 3.16 µM): 5.63 µM
- IC50 (second compound 10 µM): 3.27 µM
- viability, T/C [1]: 104%
- viability, T/C [2]: 104%
- viability, T/C [3]: 110%
- viability, T/C [4]: 100%
- viability, T/C [5]: 55.6%
- viability, T/C [6]: 31.2%
- viability, T/C [7]: 105%
- viability, T/C [8]: 108%
- viability, T/C [9]: 106%
- viability, T/C [10]: 98%
- viability, T/C [11]: 60.6%
- viability, T/C [12]: 31.4%
- viability, T/C [13]: 112%
- viability, T/C [14]: 108%
- viability, T/C [15]: 108%
- viability, T/C [16]: 96.9%
- viability, T/C [17]: 55.2%
- viability, T/C [18]: 34.9%
- viability, T/C [19]: 112%
- viability, T/C [20]: 111%
- viability, T/C [21]: 110%
- viability, T/C [22]: 96.4%
- viability, T/C [23]: 53.9%
- viability, T/C [24]: 35.1%
- viability, T/C [25]: 112%
- viability, T/C [26]: 118%
- viability, T/C [27]: 113%
- viability, T/C [28]: 97.6%
- viability, T/C [29]: 63.4%
- viability, T/C [30]: 36.9%
- viability, T/C [31]: 111%
- viability, T/C [32]: 108%
- viability, T/C [33]: 109%
- viability, T/C [34]: 100%
- viability, T/C [35]: 50.6%
- viability, T/C [36]: 31.3%

SMILES: CC[C@@]1(O)C(=O)OCc2c1cc1n(c2=O)Cc2cc3c(CN(C)C)c(O)ccc3nc2-1 + Cc1cccc(N(C)C(=O)C2C(O)CCN2c2nc(C)cc(C(F)(F)F)c2C#N)c1
- IC50 (second compound 0.0316 µM): 0.0187 µM
- IC50 (second compound 0.1 µM): 0.0192 µM
- IC50 (second compound 0.316 µM): 0.0181 µM
- IC50 (second compound 1 µM): 0.0186 µM
- IC50 (second compound 3.16 µM): 0.0168 µM
- IC50 (second compound 10 µM): 0.0191 µM
- viability, T/C (second compound 0.0316 µM, first compound 0.000316 µM): 92.2%
- viability, T/C (second compound 0.0316 µM, first compound 0.001 µM): 102%
- viability, T/C (second compound 0.0316 µM, first compound 0.00316 µM): 90.5%
- viability, T/C (second compound 0.0316 µM, first compound 0.01 µM): 85.3%
- viability, T/C [1]: 20.4%
- viability, T/C [2]: 16.1%
- viability, T/C (second compound 0.1 µM, first compound 0.000316 µM): 104%
- viability, T/C (second compound 0.1 µM, first compound 0.001 µM): 104%
- viability, T/C (second compound 0.1 µM, first compound 0.00316 µM): 99.8%
- viability, T/C (second compound 0.1 µM, first compound 0.01 µM): 88.6%
- viability, T/C [7]: 20.2%
- viability, T/C [8]: 19.7%
- viability, T/C (second compound 0.316 µM, first compound 0.000316 µM): 98.3%
- viability, T/C (second compound 0.316 µM, first compound 0.001 µM): 118%
- viability, T/C (second compound 0.316 µM, first compound 0.00316 µM): 113%
- viability, T/C (second compound 0.316 µM, first compound 0.01 µM): 83.9%
- viability, T/C [13]: 18.4%
- viability, T/C [14]: 16.5%
- viability, T/C (second compound 1 µM, first compound 0.000316 µM): 103%
- viability, T/C (second compound 1 µM, first compound 0.001 µM): 106%
- viability, T/C (second compound 1 µM, first compound 0.00316 µM): 97.1%
- viability, T/C (second compound 1 µM, first compound 0.01 µM): 84.9%
- viability, T/C [19]: 19.6%
- viability, T/C [20]: 19.8%
- viability, T/C (second compound 3.16 µM, first compound 0.000316 µM): 116%
- viability, T/C (second compound 3.16 µM, first compound 0.001 µM): 106%
- viability, T/C (second compound 3.16 µM, first compound 0.00316 µM): 105%
- viability, T/C (second compound 3.16 µM, first compound 0.01 µM): 76%
- viability, T/C [25]: 16.8%
- viability, T/C [26]: 19.8%
- viability, T/C (second compound 10 µM, first compound 0.000316 µM): 107%
- viability, T/C (second compound 10 µM, first compound 0.001 µM): 96.6%
- viability, T/C (second compound 10 µM, first compound 0.00316 µM): 97.3%
- viability, T/C (second compound 10 µM, first compound 0.01 µM): 85.6%
- viability, T/C [31]: 21.3%
- viability, T/C [32]: 22.6%
